Patent US10138230B2, “Autotaxin inhibitors” (CANCER RESEARCH TECHNOLOGY LIMITED, priority 2015, dated 2018)
Structures can show the parent of a compound that is named as a salt.

Molecular target: human recombinant ATX (Homo sapiens (Human), UniProt Q13822)
Assay: Autotaxin (ATX) activity Quanta Red assay
Type: biochemical
Settings: 15 μM Rac-1-Palmitoyl-glycero-3-phosphocholine, 2 hours room temperature, determined in duplicate
Procedure, shortened: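 Choline released from 15 μM LPC substrate by 0.8 μg/mL recombinant human ATX (pH 8.0 Tris, CaCl2, 4% DMSO, 2 h, RT) was detected by coupled Quanta Red fluorescence.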

Row | Compound | IC50 [nM]
1 | O=C(Nc1nnc(CCc2ccccc2)s1)C1CC(=O)N(c2ccc(CN3CCOCC3)cc2)C1 (stereo not drawn) [Compound F176, 1-[4-(morpholinomethyl)phenyl]-5-oxo-N-[5-(2-phenylethyl)-1,3,4-thiadiazol-2-yl]pyrrolidine-3-carboxamide] | 11
2 | CC1CCN(Cc2ccc(N3C[C@@H](C(=O)Nc4nnc(CCc5ccc(Cl)cc5)s4)CC3=O)cc2)CC1 [Compound F92, (S)-1-[4-(4-methyl-piperidin-1-ylmethyl)-phenyl]-5-oxo-pyrrolidine-3-carboxylic acid {5-[2-(4-chloro-phenyl)-ethyl]-[1,3,4]thiadiazol-2-yl}-amide] | 1
3 | O=C(Nc1nnc(CCc2ccc(Cl)cc2)s1)[C@H]1CC(=O)N(c2ccc(CN3CCOCC3)cc2)C1 [Compound F89, (3S)-N-[5-[2-(4-chlorophenyl)ethyl]-1,3,4-thiadiazol-2-yl]-1-[4-(morpholino-methyl)phenyl]-5-oxo-pyrrolidine-3-carboxamide] | 1
4 | COCCN(C)Cc1ccc(N2CC(NC(=O)c3nnc(CCc4ccc(Cl)cc4)s3)CC2=O)cc1 (stereo not drawn) [Compound F142, 5-[2-(4-chlorophenyl)ethyl]-N-[1-[4-[[2-methoxyethyl(methyl)amino]methyl]phenyl]-5-oxo-pyrrolidin-3-yl]-1,3,4-thiadiazole-2-carboxamide] | 9
5 | CN(Cc1ccc(N2C[C@@H](C(=O)Nc3ccc(CCc4ccc(F)cc4)nn3)CC2=O)cc1)C1CCOCC1 [Compound F126, (3S)-N-[6-[2-(4-fluorophenyl)ethyl]pyridazin-3-yl]-1-[4-[[methyl(tetrahydropyran-4-yl)amino]methyl]phenyl]-5-oxo-pyrrolidine-3-carboxamide] | 8
6 | CN(Cc1ccc(N2CC(C(=O)Nc3nnc(CCc4ccc(Cl)cc4)s3)CC2=O)cc1)C1CCOCC1 (stereo not drawn) [Compound F111, N-[5-[2-(4-chlorophenyl)ethyl]-1,3,4-thiadiazol-2-yl]-1-[4-[[methyl(tetrahydropyran-4-yl)amino]methyl]phenyl]-5-oxo-pyrrolidine-3-carboxamide] | 3

Now from value to molecule:

Row | IC50 [nM] | Compound
7 | 163 | O=C(Nc1ncc(COC2CCCCC2)s1)C1CC(=O)N(c2ccc(CN3CCOCC3)cc2)C1 (stereo not drawn) [Compound F187, N-[5-(cyclohexoxymethyl)thiazol-2-yl]-1-[4-(morpholinomethyl)phenyl]-5-oxo-pyrrolidine-3-carboxamide]
8 | 2450 | COc1ccc(CCc2nnc(NC(=O)C3CC(=O)N(c4ccc(CN5CCOCC5)cc4)C3)o2)cc1 (stereo not drawn) [Compound F207, N-[5-[2-(4-methoxyphenyl)ethyl]-1,3,4-oxadiazol-2-yl]-1-[4-(morpholinomethyl)phenyl]-5-oxo-pyrrolidine-3-carboxamide]
9 | 3 | O=C(Nc1nnc(CCc2ccc(Cl)cc2)s1)C1CC(=O)N(c2ccc(CN3CCC(O)CC3)cc2)C1 (stereo not drawn) [Compound F102, N-[5-[2-(4-chlorophenyl)ethyl]-1,3,4-thiadiazol-2-yl]-1-[4-[(4-hydroxy-1-piperidyl)methyl]phenyl]-5-oxo-pyrrolidine-3-carboxamide]
10 | 3 | O=C(Nc1nnc(CCc2ccc(Cl)cc2)s1)C1CC(=O)N(c2ccc(CN3CCCCCC3)cc2)C1 (stereo not drawn) [Compound F114, 1-[4-(azepan-1-ylmethyl)phenyl]-N-[5-[2-(4-chlorophenyl)ethyl]-1,3,4-thiadiazol-2-yl]-5-oxo-pyrrolidine-3-carboxamide]
11 | 30 | O=C(Nc1ccc(CCc2ccc(F)cc2)nn1)[C@H]1CC(=O)N(c2ccc(CN3CCCCC3)cc2)C1 [Compound F178, (3S)-N-[6-[2-(4-fluorophenyl)ethyl]pyridazin-3-yl]-5-oxo-1-[4-(1-piperidylmethyl)phenyl] pyrrolidine-3-carboxamide]
12 | 4 | CC1CCN(Cc2ccc(N3C[C@@H](NC(=O)c4nnc(CCc5ccc(Cl)cc5)s4)CC3=O)cc2)CC1 [Compound F137, 1-{4-[(S)-4-({5-[2-(4-chloro-phenyl)-ethyl]-[1,3,4]thiadiazole-2-carbonyl}-amino)-2-oxo-pyrrolidin-1-yl]-benzyl}-4-methyl-piperidine hydrochloride]
